In patent US20070203244A1, “INHIBITORS OF MEMBRANE TYPE-1 MATRIX METALLOPROTEINASE FOR THE TREATMENT OF INSULIN-DEPENDENT DIABETES MELLITUS” (priority 2006, published 2007):

Tests used:
[1] = target: T1, MMP-2 (Homo sapiens, UniProt P08253); conditions: preclinical studies; cited from earlier work
T1 sequence (P08253 110-660): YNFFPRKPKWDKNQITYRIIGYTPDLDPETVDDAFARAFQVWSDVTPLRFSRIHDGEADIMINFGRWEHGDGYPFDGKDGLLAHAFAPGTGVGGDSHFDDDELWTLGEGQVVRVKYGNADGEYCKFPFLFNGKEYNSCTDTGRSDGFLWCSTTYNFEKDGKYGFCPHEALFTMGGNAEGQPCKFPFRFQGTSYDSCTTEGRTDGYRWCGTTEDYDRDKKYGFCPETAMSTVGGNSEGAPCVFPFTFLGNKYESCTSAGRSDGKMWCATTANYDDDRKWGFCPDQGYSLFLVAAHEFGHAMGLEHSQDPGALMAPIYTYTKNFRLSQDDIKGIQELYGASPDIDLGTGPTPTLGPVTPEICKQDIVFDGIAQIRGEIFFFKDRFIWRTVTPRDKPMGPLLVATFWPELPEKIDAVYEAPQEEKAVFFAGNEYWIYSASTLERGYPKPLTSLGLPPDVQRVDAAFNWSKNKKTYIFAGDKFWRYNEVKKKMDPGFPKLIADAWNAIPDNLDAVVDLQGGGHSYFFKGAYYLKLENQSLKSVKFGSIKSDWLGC

[2] = target: MMP-9 (Homo sapiens, UniProt P14780); conditions: preclinical studies; cited from earlier work
Sequence of MMP-9 (P14780 94-707, species assumed): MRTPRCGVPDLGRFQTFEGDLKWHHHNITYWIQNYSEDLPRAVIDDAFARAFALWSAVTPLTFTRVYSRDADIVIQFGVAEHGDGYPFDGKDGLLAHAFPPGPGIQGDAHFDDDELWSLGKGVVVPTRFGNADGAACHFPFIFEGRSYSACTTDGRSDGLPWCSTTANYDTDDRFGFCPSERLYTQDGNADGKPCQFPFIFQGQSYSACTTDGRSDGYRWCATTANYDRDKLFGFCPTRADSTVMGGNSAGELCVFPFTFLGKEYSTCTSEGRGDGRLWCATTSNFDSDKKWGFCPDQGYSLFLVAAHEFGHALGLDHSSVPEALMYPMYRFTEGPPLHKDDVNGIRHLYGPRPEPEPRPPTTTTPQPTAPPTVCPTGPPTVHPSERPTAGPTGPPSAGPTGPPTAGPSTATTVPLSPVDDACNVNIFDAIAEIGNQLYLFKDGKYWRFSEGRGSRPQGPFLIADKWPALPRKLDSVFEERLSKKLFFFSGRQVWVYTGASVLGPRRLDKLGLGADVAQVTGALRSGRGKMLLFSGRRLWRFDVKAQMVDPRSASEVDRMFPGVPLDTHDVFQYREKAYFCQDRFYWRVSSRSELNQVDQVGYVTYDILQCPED

[3] = cited from earlier work
[4] = tested on: CD44 shedding in IS-CD8+ cells; assay: CD44 shedding in adherent IS-CD8+ cells, Western blotting; type: cell-based, NOD mouse
Protocol: Western Blotting—IS-CD8^+ cells were surface biotinylated for 1 h at 4° C. with 0.1 mg/ml sulfo-NHS-LC-biotin (Pierce, Rockford, Ill.). Following washes to remove biotin, cells were co-incubated for 2 h with MT1-MMP-CAT in serum-free, unsupplemented Click's medium. The cells were then lysed with 50 mM N-octyl-β-D-glucopyranoside in phosphate-buffered saline supplemented with 1 mM CaCl2, 1 mM MgCl2, and protease inhibitor mixture containing phenylmethylsulfonyl fluoride (1 mM) and aprotinin, pepstatin, and leupeptin (1 μg/ml each). Biotin-labeled CD44 was captured from the cell lysate and from the medium aliquots on streptavidin-agarose beads. The captured samples were examined by Western blotting with the CD44 (clone IM7.8.1) antibody to determine the released, soluble, CD44 ectodomain in the medium samples and the residual, membrane-anchored, cellular CD44 in the cell lysates.
Western blotting—IS-CD8^+ cells were surface biotinylated for 1 hr at 4° C. with 0.1 mg/ml of sulfo-NES-LC-biotin (Pierce). Following washes to remove biotin, the labeled cells were allowed to adhere in serum-free medium to plastic coated with 2% type I collagen/gelatin for 4 h or were kept in suspension. Under these experimental conditions, the vast majority of the cells became attached to gelatin. […] The cells were then lysed with 50 mM N-octyl-β-D-glucopyranoside in PBS supplemented with 1 mM CaCl2, 1 mM MgCl2, and protease inhibitor cocktail containing phenylmethylsulfonyl fluoride (1 mM) and aprotinin, pepstatin, and leupeptin (1 μg/ml each). Biotin-labeled CD44 was captured from the cell lysate and from the medium aliquots on streptavidine-Agarose beads. The captured samples were examined by Western blotting with the CD44 (clone IM7.8.1) antibody to determine the released, soluble, CD44 ectodomain in the medium samples and the residual, membrane-anchored, cellular CD44 in the cell lysates.

[5] = tested on: NOD mice; assay: Adoptively transferred diabetes in NOD mice (IS-CD8+ cells); type: in vivo; conditions: Example 3: i.p. 30 min prior to cells, then every other day; inhibitor diluted to 4 mg/ml
Protocol: IS-CD8^+ cells were labeled with DiI and then injected in NOD mice. In 24 h, the labeled cells with their intra-islet location were counted in the cryostat sections of the entire pancreas. […] IS-CD8^+ cells were injected in NOD mice. […] PBS containing […] DMSO was used as a vehicle control. The onset of diabetes was monitored daily by measuring urine glucose levels with the Diastix reagent strips. Mice with urine glucose levels of ≧2000 mg/dl for 3 consecutive days were considered diabetic. * and **, p=0.02 and p=0.015 by Fisher's test, respectively.
Mice were monitored for 21 days. […] The onset of diabetes was identified by assessing urine glucose levels with Diastix® strips (Bayer). Mice with urine glucose levels of >2000 mg/dl for 3 consecutive days were considered diabetic. […] The level of glucose in the urine closely follows that in the blood (Traisman, H. S., and Greenwood, R. D. (1973)). The measurement of glucose in urine is a widely accepted method to follow the development of diabetes in NOD mice (Pomerleau, D. P., et al. (2005)).

[6] = target: T2, MT1-MMP (Mus musculus, UniProt P53690); assay: MT1-MMP-dependent MMP-2 activation in adherent IS-CD8+ cells, gelatin zymography; type: cell-based, NOD mouse; parameters: inhibition of MMP-2 activation: dose or concentration left out as unconfirmed
T2 construct: Endogenous MT1-MMP is latent in non-adherent IS-CD8^+ cells; endogenous in cells; host or cells: IS-CD8+ T cells (TGNFC8 clone, NOD mouse), adherent to gelatin
Protocol: MT1-MMP-dependent MMP-2 Activation and Gelatin Zymography—IS-CD8^+ cells (1×10^6) were either allowed to adhere for 4 h in serum-free unsupplemented Click's medium to plastic coated with 2% gelatin or kept in solution. Under these experimental conditions, the vast majority of cells became attached to gelatin. In 4 h, media samples (30 μl each) were withdrawn and analyzed by gelatin zymography (Deryugina, E. I., et al. (2001)) to identify the proteolytic activity and the activation status of MMP-2 naturally synthesized by IS-CD8^+ cells. Where indicated, cells were supplemented with external purified pro-MMP-2 (20 ng). Pro-MMP-2 was isolated from a conditioned medium of p2AHT2A72 cells derived from an HT1080 fibrosarcoma cell line sequentially transfected with the E1A and MMP-2 cDNAs (Strongin, A. Y., et al. (1995)).
MT1-MMP-dependent MMP-2 activation and gelatin zymography—IS-CD8^+ cells (1×10^6) were either allowed to adhere for 4 h in serum-free unsupplemented Click's medium to the plastic coated with 2% gelatin or kept in solution. In 18 h, media samples (30 μl each) were withdrawn and analyzed by gelatin zymography (Deryugina, E. I., et al. (2001)) to identify the proteolytic activity and the activation status of MMP-2 naturally synthesized by IS-CD8^+ cells. […] Pro-MMP-2 was isolated from a conditioned medium of p2AHT2A72 cells derived from an HT1080 fibrosarcoma cell line sequentially transfected with the E1A and MMP-2 cDNAs (Strongin, A. Y., et al. (1995)).

[7] = tested on: IS-CD8+ T cells; assay: Homing of DiI-labeled IS-CD8+ T cells into the pancreatic islets of NOD mice; type: in vivo; conditions: Example 3: inhibitor i.p. before cells; 24 h; SB-3CT and EGCG at much higher concentrations than AG3340
Protocol: Fluorescent Tracing and Morphometric Analysis—For trafficking studies, IS-CD8^+ T cells were incubated at 1×10^7 cells/ml for 30 min at 37° C. in the dark in complete Click's medium containing 5% fetal calf serum and 0.0075 mg/ml of the fluorescent dye 1,1′-didodecyl-3,3,3′,3′-tetramethylindocarbocyanine perchlorate (DiI; Molecular Probes, Eugene, Oreg.). After incubation, the cells were washed three times with phosphatebuffered saline to remove excess DiI. Labeled IS-CD8^+ cells (1×10^7 cells) were injected intravenously in 0.2 ml of phosphate-buffered saline into irradiated (725 rads, 24 h in advance) NOD mice. Mice were sacrificed 24 h after injection of DiI-labeled cells. The spleen and the pancreata were excised and fixed in 0.1 M periodate-lysine-paraformaldehyde phosphate buffer. The organs were next sucrose-saturated, freeze-molded in OCT compound (Sakura Finetek Inc., Torrance, Calif.), and freeze-sectioned. 7-μm-thick cryostat sections of the entire pancreas were prepared at 60-μm intervals using a Leica CM1900 cryotom. Distribution of DiI-labeled CD8^+ cells within the islets was examined using a fluorescent microscope. At least 100 individual islets per mouse (4-5 mice/experimental group) were examined. The characteristic morphology of the islets is easily identified on the cryosections. DiI-labeled cells were counted within the area relevant to each individual islet (see FIG. 3 for a representative image; the islet-relevant area is depicted by the solid white line, and the islet boundaries are shown by the white dotted line). The position of each IS-CD8^+ labeled cell was determined relative to the islet boundary. The labeled cells localized within the islet boundary were considered to be “inside,” whereas the labeled cells adjacent to the islet but outside of the islet boundary were considered to be “at the entrance.” This method has been described in substantial detail (Savinov, A. Y., et al. (2003), and Savinov, A. Y., et al. (2001), which are herein incorporated by reference in their entirety for their teaching of these methods).
Fluorescent tracing and morphometric analysis—For trafficking studies, IS-CD8^+ T cells were incubated at 1×10^7 cells/ml for 30 min at 37° C. in the dark in the complete Click's medium containing 5% FCS and 0.0075 mg/ml of fluorescent dye 1,1′-didodecyl-3,3,3′,3′-tetramethylindocarbocyanine perchlorate (DiI; Molecular Probes). After incubation, the cells were washed three times with PBS to remove excess DiI. Labeled IS-CD8^+ cells (1×10^7 cells) were intravenously injected in 0.2 ml of PBS into irradiated (725 Rad, 24 h in advance) NOD mice. Mice were sacrificed 24 h after injection of DiI-labeled cells. […] In 24 h, the spleen and the pancreata were excised and fixed in 0.1 M periodate-lysine-paraformaldehyde phosphate buffer. The organs were next sucrose-saturated, freeze-molded in OCT compound (Sakura Finetek Inc.) and freeze-sectioned. 7-μm-thick cryostat sections of the entire pancreas were prepared at the 60 μm intervals using a Leica CM1900 cryotom. Distribution of DiI-labeled CD8^+ cells within the islets was examined using a fluorescent microscope. At least 100 individual islets per mouse, 4-5 mice per each experimental group, were examined. The characteristic morphology of the islets is easily identified on the cryosections. DiI-labeled cells were counted within the area relevant to each individual islet. The position of each IS-CD8^+ labeled cell was determined relative to the islet boundary. […]

[8] = human TIMP proteins; cited from earlier work

For CNC(=O)[C@@H](NC(=O)[C@H](CC(C)C)NC(=O)[C@@H](S)CCN1C(=O)N(C)C(C)(C)C1=O)C(C)(C)C [BMS-275291], the “inhibitory activity against MMP-2” value [1] is given as “potent inhibitory activity” and the “inhibitory activity against MMP-9” value [2] is given as “potent inhibitory activity”.

For COc1ccc(S(=O)(=O)N(Cc2cccnc2)[C@@H](C(=O)NO)C(C)C)cc1 [CGS-27023A], the “plasma concentrations relative to in vitro IC50s for MMP-2,-3 and -9” value ([3]; clinically tolerable doses) is given as “severalfold greater”, the “time for which plasma concentrations above the in vitro IC50s for MMP-2,-3 and -9 were sustained after dosing” value ([3]; clinically tolerable doses) is given as > 10 h and the “dose at which major toxic effects (cutaneous and musculoskeletal toxicity) were encountered” value ([3]; oral, continuous dosing, 150 to 600 mg in divided doses) is given as “exceeding 300 mg twice a day”.

For O=C(O[C@@H]1Cc2c(O)cc(O)cc2O[C@@H]1c1cc(O)c(O)c(O)c1)c1cc(O)c(O)c(O)c1 [EGCG, (−)-epigallocatechin 3-gallate], the “effect on CD44 proteolysis” value ([4]; Example 3: EGCG 500 mM) was “without any significant effect”, the “delay of the transferred diabetes onset” value [5] was “no delay” and the “inhibition of MMP-2 activation” value ([6]; Example 3: EGCG) was “partial inhibition”. For the same molecule, the “homing of IS-CD8+ cells inside the islets” value [7] was “did not affect”.

For O=S(=O)(CC1CS1)c1ccc(Oc2ccccc2)cc1 (stereo not drawn) [SB-3CT], the “shedding of CD44 in adherent cells” value ([4]; Example 3) was “no effect”, the “delay of the transferred diabetes onset” value [5] was “no delay” and the “activation of MMP-2 in adherent cells” value ([6]; Example 3: inhibitors added for 18 h) was “no effect”. For the same molecule, the “homing of IS-CD8+ cells inside the islets” value [7] was “did not affect”.

In the case of “TIMP-1: native tissue inhibitor of MMP; a poor inhibitor of MT1-MMP”, the “shedding of CD44 in adherent cells” value ([4]; Example 2: AG3340 50 μM, TIMP-1 and TIMP-2 100 ng/ml) is listed as “minor but noticeable inhibition”, the “activation of MMP-2 in adherent cells” value ([6]; Example 2: AG3340 50 μM, TIMP-1 and TIMP-2 100 ng/ml, 18 h) is listed as “no effect” and the isoelectric point [8] is listed as 8.00.

B1: TIMP-4: native tissue inhibitor of MMP, 22 kDa, SEQ ID NO:6 (protein, UniProt Q99727 30-224, looked up)
Metalloproteinase inhibitor 4: CSCAPAHPQQHICHSALVIRAKISSEKVVPASADPADTEKMLRYEIKQIKMFKGFEKVKDVQYIYTPFDSSLCGVKLEANSQKQYLLTGQVLSDGKVFIHLCNYIEPWEDLSLVQRESLNHHYHLNCGCQITTCYTVPCTISAPNECLWTDWLLERKLYGYQAQHYVCMKHVDGTCSWYRGHLPLRKEFVDIVQP
For B1, the isoelectric point [8] is given as 7.34.

B2: TIMP-3: native tissue inhibitor of MMP, SEQ ID NO:4 (protein)
chain: MTPWLGLIVLLGSWSLGDWGAEACTCSPSHPQDAFCNSDIVIRAKVVGKKLVKEGPFGTLVYTIKQMKMYRGFTKMPHVQYIHTEASESLCGLKLEVNKYQYLLTGRVYDGKMYTGLCNFVERWDQLTLSQRKGLNYRYHLGCNCKIKSCYYLPCFVTSKNECLWTDMLSNFGYPGYQSKHYACIRQKGGYCSWYRGWAPPDKSIINATDP
For B2, the isoelectric point [8] is given as 9.04.
